According to patent US8383139B2 (Bayer CropScience AG, priority 2008, dated 2013):

Columns and labels:
Septoria tritici = Septoria tritici test (wheat)/protective; type: in vivo; settings: Zymoseptoria tritici, 504 h, 500 ppm active substance, protective, evaluation 21 days after inoculation, read-out: degree of effectiveness
Experimental: • Solvent: 50 parts by weight of N,N-dimethylacetamide • Emulsifier: 1 part by weight of alkylaryl polyglycol ether (polyoxyethylene (16) tristearylphenyl ether) To prepare a suitable active substance composition, 1 part by weight of active substance is mixed with the given amounts of solvent and emulsifier and the concentrate is diluted to the desired concentration using water. For the testing of protective effectiveness, young plants are sprayed with the active substance composition at the application rate given. After the spray coating has dried on, the plants are sprayed with a suspension of spores of Septoria tritici. The plants remain in an incubation chamber at 20° C. and 100% relative humidity for 48 hours. The plants are afterwards placed under a transparent hood at 15° C. and 100% relative humidity for a further 60 hours. The plants are placed in a greenhouse at a temperature of approximately 15° C. and a relative humidity of 80%. Evaluation is carried out 21 days after the inoculation. In this connection, 0% means a degree of effectiveness corresponding to that of the control, while a degree of effectiveness of 100% means that no infestation is observed.

Puccinia triticina = Puccinia triticina test (wheat)/protective; type: in vivo; settings: 192 h, 500 ppm active substance, protective, evaluation 8 days after inoculation, read-out: degree of effectiveness
Experimental: • Solvent: 50 parts by weight of N,N-dimethylacetamide • Emulsifier: 1 part by weight of alkylaryl polyglycol ether (polyoxyethylene (16) tristearylphenyl ether) To prepare a suitable active substance composition, 1 part by weight of active substance is mixed with the given amounts of solvent and emulsifier and the concentrate is diluted to the desired concentration using water. For the testing of protective effectiveness, young plants are sprayed with the active substance composition in the application rate given. After the spray coating has been dried on, the plants are sprayed with spores with a suspension of spores of Puccinia triticina. The plants remain in an incubation chamber at 20° C. and 100% relative humidity for 48 hours. The plants are placed in a greenhouse at a temperature of approximately 20° C. and a relative humidity of approximately 80%. Evaluation is carried out 8 days after the inoculation. In this connection, 0% means a degree of effectiveness corresponding to that of the control, while a degree of effectiveness of 100% means that no infestation is observed.

Sphaerotheca fuliginea = experiment: Sphaerotheca test (cucumber)/protective; type: in vivo; settings: Podosphaera fuliginea, 168 h, 500 ppm active substance, protective, evaluation 7 days after inoculation, read-out: degree of effectiveness
Experimental: • Solvents: 49 parts by weight of N,N-dimethylformamide • Emulsifier: 1 part by weight of alkylaryl polyglycol ether (polyoxyethylene (16) tristearylphenyl ether) To prepare a suitable active substance composition, 1 part by weight of active substance is mixed with the given amounts of solvents and emulsifier and the concentrate is diluted to the desired concentration using water. For the testing of protective effectiveness, young cucumber plants are sprayed with the active substance composition in the application rate given. One day after the treatment, the plants are inoculated with a suspension of spores of Sphaerotheca fuliginea. Subsequently, the plants are placed in a greenhouse at 70% relative humidity and at a temperature of 23° C. Evaluation is carried out 7 days after the inoculation. In this connection, 0% means a degree of effectiveness corresponding to that of the control, while a degree of effectiveness of 100% means that no infestation is observed.

[1] = log P by HPLC on reversed-phase columns (C 18), EEC Directive 79/831 Annex V.A8; type: physicochemical; settings: for chromatographic logP: reversed-phase C18 HPLC column, pH 2.3, [a] HPLC, read-out: log p
[2] = acid region pH 2.3, 0.1% aqueous phosphoric acid and acetonitrile
[3] = [a] HPLC, acid region pH 2.3, 0.1% aqueous phosphoric acid and acetonitrile
[4] = [b] LC-MS, acid region pH 2.7, 0.1% aqueous formic acid and acetonitrile

log p [1, 3] | log p [1, 4] | SMILES | further results
 |  | CCN(C)C=Nc1cc(C)c(Oc2nc(Cc3cccc(OC)c3)ns2)cc1C [Example 16, N-ethyl-N′-(4-{[3-(3-methoxybenzyl)-1,2,4-thiadiazol-5-yl]oxy}-2,5-dimethylphenyl)-N-methylimidoformamide] | pest or weed control at 500 ppm (Septoria tritici): ≥ 70%; pest or weed control at 500 ppm (Puccinia triticina): ≥ 70%; pest or weed control at 500 ppm (Sphaerotheca fuliginea): ≥ 70%; chromatographic logP [1, 2]: 1.7
 |  | Cc1cc(Oc2nc(C(C)(C)c3ccc(Cl)cc3)ns2)c(Cl)cc1N=CN(C)C(C)C [Example 30, N′-[5-chloro-4-({3-[2-(4-chlorophenyl)propan-2-yl]-1,2,4-thiadiazol-5-yl}oxy)-2-methylphenyl]-N-methyl-N-(propan-2-yl)imidoformamide] | pest or weed control at 500 ppm (Puccinia triticina): ≥ 70%; pest or weed control at 500 ppm (Sphaerotheca fuliginea): ≥ 70%; chromatographic logP [1, 2]: 2.86
 |  | Cc1cc(Oc2nc(Cc3ccc(Br)cc3)ns2)c(C)cc1N=CN1CCCCC1 [Example 33, 4-{[3-(4-bromobenzyl)-1,2,4-thiadiazol-5-yl]oxy}-2,5-dimethyl-N-(piperidin-1-ylmethylidene)aniline] | pest or weed control at 500 ppm (Septoria tritici): ≥ 70%; pest or weed control at 500 ppm (Puccinia triticina): ≥ 70%; pest or weed control at 500 ppm (Sphaerotheca fuliginea): ≥ 70%; chromatographic logP [1, 2]: 2.17
 |  | Cc1cc(Oc2nc(C3(c4ccc(Cl)cc4)CC3)ns2)c(Cl)cc1N=CN(C)C(C)C [Example 41, N′-[5-chloro-4-({3-[1-(4-chlorophenyl)cyclopropyl]-1,2,4-thiadiazol-5-yl}oxy)-2-methylphenyl]-N-methyl-N-(propan-2-yl)imidoformamide] | pest or weed control at 500 ppm (Septoria tritici): ≥ 70%; pest or weed control at 500 ppm (Puccinia triticina): ≥ 70%; pest or weed control at 500 ppm (Sphaerotheca fuliginea): ≥ 70%; chromatographic logP [1, 2]: 2.71
2.27^[a] |  | Cc1cc(Oc2nc(Cc3ccccc3F)ns2)c(C)cc1N=CN1CCCCC1 [Example 104] | 
2.1^[a] |  | CCN(C)C=Nc1cc(C)c(Oc2nc(Cc3c(F)cc(F)cc3F)ns2)cc1C [Example 105] | 
2.07^[a] |  | CCN(C)C=Nc1cc(C)c(Oc2nc(Cc3ccccc3[N+](=O)[O-])ns2)cc1C [Example 106] | 
2.37^[a] |  | Cc1cc(Oc2nc(Cc3ccc4ccccc4c3)ns2)c(C)cc1N=CN1CCCCC1 [Example 107] | 
2.93^[a] |  | CCN(C)C=Nc1cc(C(C)C)c(Oc2nc(Cc3ccc(Cl)cc3Cl)ns2)cc1C [Example 108] | 
2.71^[a] |  | CCN(C)C=Nc1cc(C(C)C)c(Oc2nc(Cc3ccc(Cl)cc3)ns2)cc1C [Example 109] | 
2.41^[a] |  | CCN(C)C=Nc1cc(C(C)C)c(Oc2nc(Cc3ccc(F)cc3)ns2)cc1C [Example 110] | 
2.75^[a] |  | CCN(C)C=Nc1cc(C(C)C)c(Oc2nc(Cc3ccc(Br)cc3)ns2)cc1C [Example 111] | 
2.24^[a] |  | CCN(C)C=Nc1cc(C)c(Oc2nc(Cc3ccc4ccccc4c3)ns2)cc1C [Example 112] | 
2.28^[a] |  | CCN(C)C=Nc1cc(C)c(Oc2nc(Cc3cccc(C)c3)ns2)cc1C [Example 113] | 
2.44^[a] |  | Cc1cccc(Cc2nsc(Oc3cc(C)c(N=CN4CCCCC4)cc3C)n2)c1 [Example 114] | 
2.76^[a] |  | Cc1cc(F)c(Br)cc1Cc1nsc(Oc2cc(C)c(N=CN3CCCCC3)cc2C)n1 [Example 115] | 
2.57^[a] |  | CCN(C)C=Nc1cc(C)c(Oc2nc(Cc3cc(Br)c(F)cc3C)ns2)cc1C [Example 116] | 
2.33^[a] |  | Cc1cc(Oc2nc(Cc3c(F)cc(F)cc3F)ns2)c(C)cc1N=CN1CCCCC1 [Example 117] | 
 | 2.42^[b] | CCN(C)C=Nc1cc(Cl)c(Oc2nc(Cc3ccc(Cl)cc3Cl)ns2)cc1C [Example 118] | 
 | 2.26^[b] | CCN(C)C=Nc1cc(Cl)c(Oc2nc(Cc3ccc(Br)cc3)ns2)cc1C [Example 119] | 
 | 2.12^[b] | CCN(C)C=Nc1cc(C)c(Oc2nc(Cc3ccc(C)cc3)ns2)cc1C [Example 120] | 
2.16^[a] |  | Cc1cc(Oc2nc(Cc3ccccc3[N+](=O)[O-])ns2)c(C)cc1N=CN1CCCCC1 [Example 121] | 

log p [1, 3] | log p [1, 4] | SMILES | further results
2.49^[a] |  | Cc1ccc(Cc2nsc(Oc3cc(C)c(N=CN4CCCCC4)cc3C)n2)cc1 [Example 122] | 
 | 2.06^[b] | Cc1cc(Oc2nc(Cc3ccc(Cl)cc3)ns2)c(C)cc1N=CN(C)C1CC1 [Example 123] | 
 | 2.56^[b] | CCOCC(C1CC1)N(C)C=Nc1cc(C)c(Oc2nc(Cc3ccc(Cl)cc3)ns2)cc1C (stereo not shown) [Example 124] | 
 | 2.68^[b] | Cc1cc(Oc2nc(Cc3ccc(SC(F)(F)F)cc3)ns2)c(C)cc1N=CN(C)CC(F)F [Example 125] | 
 | 1.83^[b] | Cc1cc(Oc2nc(Cc3ccc(SC(F)(F)F)cc3)ns2)c(C)cc1N=CN(C)C1CC1 [Example 126] | 
 | 1.83^[b] | Cc1cc(Oc2nc(Cc3ccc(F)cc3)ns2)c(C)cc1N=CN(C)C1CC1 [Example 127] | 
 | 2.92^[b] | CCOCC(C1CC1)N(C)C=Nc1cc(C)c(Oc2nc(Cc3ccc(SC(F)(F)F)cc3)ns2)cc1C (stereo not shown) [Example 128] | 
 | 2.38^[b] | Cc1cc(Oc2nc(Cc3ccc(C(F)(F)F)cc3)ns2)c(C)cc1N=CN(C)CC(F)F [Example 129] | 
 | 2.28^[b] | Cc1cc(Oc2nc(Cc3ccc(C(F)(F)F)cc3)ns2)c(C)cc1N=CN(C)C1CC1 [Example 130] | 
 | 1.99^[b] | Cc1cc(Oc2nc(Cc3ccc(F)cc3)ns2)c(C)cc1N=CN(C)CC(F)F [Example 131] | 
 | 2.26^[b] | CCOCC(C1CC1)N(C)C=Nc1cc(C)c(Oc2nc(Cc3ccc(F)cc3)ns2)cc1C (stereo not shown) [Example 132] | 
 | 2.43^[b] | CCOCC(C1CC1)N(C)C=Nc1cc(C)c(Oc2nc(Cc3ccc(C(F)(F)F)cc3)ns2)cc1C (stereo not shown) [Example 133] | 
 | 2.36^[b] | CCOCC(C1CC1)N(C)C=Nc1cc(C)c(Oc2nc(Cc3ccc(OC)cc3)ns2)cc1C (stereo not shown) [Example 134] | 
 | 1.92^[b] | COc1ccc(Cc2nsc(Oc3cc(C)c(N=CN(C)C4CC4)cc3C)n2)cc1 [Example 135] | 
 | 1.87^[b] | COc1ccc(Cc2nsc(Oc3cc(C)c(N=CN(C)CC(F)F)cc3C)n2)cc1 [Example 136] | 
 | 2.25^[b] | Cc1ccc(Cc2nsc(Oc3cc(C)c(N=CN(C)CC(F)F)cc3C)n2)cc1 [Example 137] | 
 | 2.19^[b] | Cc1ccc(Cc2nsc(Oc3cc(C)c(N=CN(C)C4CC4)cc3C)n2)cc1 [Example 138] | 
2.7^[a] |  | CCOCC(NC=Nc1cc(C)c(Oc2nc(Cc3ccc(Cl)cc3)ns2)cc1C)C1CC1 (stereo not shown) [Example 139] | 
 | 2.4^[b] | CCOCC(C1CC1)N(C)C=Nc1cc(C)c(Oc2nc(Cc3ccc(C)cc3)ns2)cc1C (stereo not shown) [Example 140] | 
 | 2.2^[b] | Cc1cc(Oc2nc(Cc3ccc(OC(F)(F)F)cc3)ns2)c(C)cc1N=CN(C)C1CC1 [Example 141] | 
 | 2.46^[b] | Cc1cc(Oc2nc(Cc3ccc(OC(F)(F)F)cc3)ns2)c(C)cc1N=CN(C)CC(F)F [Example 142] | 
 | 2.75^[b] | CCOCC(C1CC1)N(C)C=Nc1cc(C)c(Oc2nc(Cc3ccc(OC(F)(F)F)cc3)ns2)cc1C (stereo not shown) [Example 143] | 
